Structures are written as SMILES. Some results are limits rather than exact numbers.

By IC50 is commonly meant the concentration that gives 50% inhibition. A higher IC50 goes with weaker potency in that assay.

For one data set, the target named is human RBP4 (Homo sapiens (Human), UniProt P02753). Description: SPA binding assay for RBP4 (scintillation proximity, 3H-retinol displacement). As to conditions: 10 nM 3H-retinol, 50 nM biotinylated RBP4. The method, then: Scintillation Proximity RBP4 Binding Assay
Untagged human RBP4 purified from the urine of tubular proteinuria patients was purchased from Fitzgerald Industries International. It was biotinylated using the EZ-Link Sulfo-NHS-LC-Biotinylation kit from Pierce following the manufacturer's recommendations. […] Nonspecific binding was determined in the presence of 20 μM of unlabeled retinol. The reaction mix was assembled in the dark under dim red light. The plates were sealed with clear tape (TopSeal-A: 96-well microplate, PerkinElmer), wrapped in the aluminum foil, and allowed to equilibrate 6 hours at room temperature followed by overnight incubation at +4° C. Radiocounts were measured using a TopCount NXT counter (Packard Instrument Company).
The compounds listed below were tested in two in vitro assays, RBP4 binding (SPA) and retinol-dependent RBP4-TTR interaction (HTRF) (Table 1).
On the technique in general: SPA uses beads or plates that emit light when radiolabelled molecules are held near them.

The next data set deals with A2E. In words: A2E (bisretinoid) accumulation in eyes of Abca4−/− mice, HPLC of eyecups. The format is in vivo. As to conditions: 35 mg/kg daily oral in chow, 8 weeks, p=0.0007. The method, then:
Effect of 7a on accumulation of N-retinylidene-N-retinylethanolamine (A2E) in Eyes of the Abca4^−/− Mice
Animal protocols were approved by the Institutional Animal Care and Use Committee of Columbia University and complied with guidelines set forth by The Association for Research in Vision and Ophthalmology. […] Abca4^−/− (knockout) and C57BL/6J (wild-type control) mice were raised under 12 h on-off cyclic lighting with an in-cage illuminance of 30-50 lux. For long-term oral dosing 7a was formulated into Purina 5035 rodent chow at Research Diets, Inc. (New Brunswick, NJ) to ensure consistent 35 mg/kg daily oral dosing. Animals were administered the AKR-XI-85-containing chow for 8 weeks. […] Serum RBP4 was measured using the RBP4 (mouse/rat) dual ELISA kit (AdipoGen) following the manufacturer's instructions.
After the completion of dosing, animals were euthanized and posterior eyecups consisting of sclera, choroid and RPE were prepared from enucleated eyes according to the standard techniques. […] A previously established HPLC method (Journal of Biological Chemistry, 275, 29354-29360) was utilized for quantifying A2E in mouse eyecups. Quantitation of A2E was conducted by manually integrating the A2E peak (approximately 12-min elution time) which was identified by the co-elution with the synthetic A2E standard and by characteristic absorbance spectrum. […]

In the next data set the target is CYP2D6 (Homo sapiens (Human), UniProt P10635). In words: CYP inhibition, fluorescent, CYP2D6. The class given is in vitro ADME. The method, then: The compounds listed below were tested in various metabolic stability and CYP inhibition assays.
Sequence of CYP2D6 (P10635 whole entry, species assumed): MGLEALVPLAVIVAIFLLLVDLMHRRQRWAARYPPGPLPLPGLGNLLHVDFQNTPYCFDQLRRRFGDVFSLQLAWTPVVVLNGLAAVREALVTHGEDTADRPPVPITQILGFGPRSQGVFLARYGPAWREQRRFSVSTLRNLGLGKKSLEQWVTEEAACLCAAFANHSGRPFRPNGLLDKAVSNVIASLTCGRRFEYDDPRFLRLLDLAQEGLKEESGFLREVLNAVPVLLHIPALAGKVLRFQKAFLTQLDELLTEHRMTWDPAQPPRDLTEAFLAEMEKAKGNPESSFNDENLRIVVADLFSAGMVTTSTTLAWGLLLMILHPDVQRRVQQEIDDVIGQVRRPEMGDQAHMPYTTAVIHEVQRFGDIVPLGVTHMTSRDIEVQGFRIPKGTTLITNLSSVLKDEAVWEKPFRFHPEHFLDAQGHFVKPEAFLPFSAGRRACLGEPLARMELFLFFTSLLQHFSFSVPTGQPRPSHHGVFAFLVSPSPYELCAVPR

As to `O=C(c1nc2ncccn2n1)N1C[C@H]2C[C@@H](c3ccccc3C(F)(F)F)C[C@H]2C1` [Compound 7a], the IC50 at human RBP4 is 23 nM; on CYP2D6, above 100000 nM. Moreover, the “A2E reduction vs control chow-treated Abca4−/− animals” value in the data set with A2E is reported as 69%.

The values are drawn from patent US12168664B2, “Triazolopyrimidines, their preparation and use” (THE TRUSTEES OF COLUMBIA UNIVERSITY IN THE CITY OF NEW YORK, priority 2018, dated 2024).
